# Columns and labels:
# [1] = tested on: F. oxysporum transformants generated using pBHt2-tk (ChGPD-HSVtk); format: cell-based, Fusarium oxysporum
# [2] = tested on: Aspergillus fumigatus transformants generated using pBHt2-tk (ChGPD-HSVtk); format: cell-based
# [3] = tested on: Botrytis cineria transformants generated using pBHt2-tk (ChGPD-HSVtk); format: cell-based
# [4] = tested on: wild-type strain of B. cineria; format: cell-based, Botrytis cineria
# [5] = tested on: F. oxysporum O-685 transformants; format: cell-based, Fusarium oxysporum
# [6] = tested on: transformants of N. crassa that express HSVtk; conditions: HSVtk-expressing transformants; cited from earlier work
# [7] = tested on: transformants of Cryptococcus neoformans that express HSVtk; conditions: HSVtk-expressing transformants; cited from earlier work
Structure (SMILES),sensitivity of transformants [1],concentration required for significant growth inhibition [2] [µM],sensitivity of transformants [2],concentration sufficient to inhibit growth [3] [nM],sensitivity of transformants [3],sensitivity of wild-type strain [4],reduction of the number of transformants relative to that generated in the presence of 0 or 5 μM F2dU [5] [fold],sensitivity of transformants [6],sensitivity of transformants [7],concentration failing to inhibit growth [3] [mM]
"O=c1[nH]c(=O)n([C@H]2C[C@H](O)[C@@H](CO)O2)cc1F [F2dU, 5-fluoro-2′-deoxyuridine]",exhibited sensitivity,50,exhibited sensitivity,5,exhibited sensitivity,exhibited noticeable sensitivity,2 to 4,exhibited sensitivity,exhibited sensitivity,
Nc1nc(O)c2ncn(COC(CO)CO)c2n1 [Ganciclovir],exhibited sensitivity,,exhibited sensitivity,,,,,,,> 2

# Source: patent US20050181509A1 (priority 2004, published 2005)
